Here are results for four compounds from PMC5850989 (Toxicology letters, 2016).

One series concerns CaCo-2 cells. To be noted: average for Enn A, A1, B and B1, ref Meca et al., 2012; cited from earlier work.
The format of series [1] is in vivo, CB-17 scid/scid mice. To be noted: KB-3-1 xenograft.
The format of series [2] is in vivo, SCID mice. To be noted: 5 mg/kg i.p.
A short description of series [3]: Evaluation of toxicological effects: body weight, behavior, histology. In kind it is in vivo, SCID mice. To be noted: 5 mg/kg i.p., short-term and 9-day schedules.
The conditions of series [4]: ref Manyes et al., 2014, cited from earlier work.
Where [5] appears, read: 5 mg/kg b.w. i.p. daily, 9 days, mean ± SD (n = 4).

SMILES strings stand for the structures.

Consider `CC[C@H](C)[C@H]1C(=O)O[C@H](C(C)C)C(=O)N(C)[C@@H]([C@@H](C)CC)C(=O)O[C@H](C(C)C)C(=O)N(C)[C@@H](C(C)C)C(=O)O[C@H](C(C)C)C(=O)N1C` [Enn A1], for which the Apparent mean bioavailability in the series on CaCo-2 cells was 80%.
Turning to `CC(C)[C@H]1C(=O)O[C@H](C(C)C)C(=O)N(C)[C@@H](C(C)C)C(=O)O[C@H](C(C)C)C(=O)N(C)[C@@H](C(C)C)C(=O)O[C@H](C(C)C)C(=O)N1C` [Enn B, Enniatin B], in series [1] (setting [5]), the Concentration in serum worked out at 5.4 ± 0.2 µg/kg and the Concentration in tumor is reported as 2.8 ± 0.8 µg/kg. For the same compound, in series [1] (9-day treatment, 5 mg/kg i.p.), the “Degradation products (metabolites) in tumor tissues” value was “no degradation products could be found”. Moreover, the “Concentration in liver, quantified with Enn B calibration curve” value in series [2] (2-days Enn B-treated SCID mice) amounted to 2.9 ± 0.6 µg/kg. Also, the “Metabolites in serum, brain, muscle and kidney” value in series [2] (short-term treatment) was “no metabolites were found”. Moreover, the “Apparent signs of toxicity (food and fluid consumption, fatigue, body weight alterations)” value in series [3] was “None of the treatment schedules showed apparent signs of toxicity”. The Apparent mean bioavailability in the series on CaCo-2 cells is on record as 80%.
For the compound `CC(C)C1NC(=O)C(C(C)C)OC(=O)C(C(C)C)N(C)C(=O)C(C(C)C)OC(=O)C(C(C)C)N(C)C(=O)C(C(C)C)OC1=O` (stereo not shown) [Mono-demethylated-Enn B], in series [2] (2-days Enn B-treated SCID mice), the “Concentration in colon, quantified with Enn B calibration curve” value is reported as 0.6 ± 0.09 µg/kg and the “Concentration in liver, quantified with Enn B calibration curve” value worked out at 0.7 ± 0.1 µg/kg.
`CC[C@H](C)[C@H]1C(=O)O[C@H](C(C)C)C(=O)N(C)[C@@H]([C@@H](C)CC)C(=O)O[C@H](C(C)C)C(=O)N(C)[C@@H]([C@@H](C)CC)C(=O)O[C@H](C(C)C)C(=O)N1C` [Enn A]: in the series on CaCo-2 cells, the Apparent mean bioavailability is 80%. The Detection in kidneys result in series [4] (Enn A-fed Wistar rats) is listed as “no Enn A was detected in kidneys”. The “Adverse effects (histological analyses, biochemical blood parameters)” value in series [4] (repeated dose 20.91 mg Enn A/kg b.w./day, 28 days, feed) is reported as “no adverse effects”.
